Series [1] addresses T1, Voltage-gated potassium channel, IKs; KCNQ1(Kv7.1)/KCNE1(MinK) (Homo sapiens, UniProt P51787+P15382). As to the kind of experiment: Inhibition of slow delayed inward rectifying potassium current (Iks) in Chinese Hamster Ovary (CHO) cells transfected with KCNQ1 / […] / KvLQT1 and KCNE1/minK measured using IonWorks automated patch clamp platform. The class given is functional, cell-based, Cricetulus griseus.

Series [2] deals with T2, Voltage-dependent L-type calcium channel subunit alpha-1C (Homo sapiens, UniProt Q13936). As to the kind of experiment: Inhibition of long-lasting type calcium current (hICa) in Chinese Hamster Ovary (CHO) cells expressing hCav1.2 measured using IonWorks Quattro automated patch clamp platform. Type of series: functional, cell-based, Cricetulus griseus. On the technique in general: Patch clamp records ionic current or voltage across a cell membrane.

Series [3] addresses T3, A-type voltage-gated potassium channel KCND3 (Homo sapiens, UniProt Q9UK17).
T3 sequence (Q9UK17 whole entry): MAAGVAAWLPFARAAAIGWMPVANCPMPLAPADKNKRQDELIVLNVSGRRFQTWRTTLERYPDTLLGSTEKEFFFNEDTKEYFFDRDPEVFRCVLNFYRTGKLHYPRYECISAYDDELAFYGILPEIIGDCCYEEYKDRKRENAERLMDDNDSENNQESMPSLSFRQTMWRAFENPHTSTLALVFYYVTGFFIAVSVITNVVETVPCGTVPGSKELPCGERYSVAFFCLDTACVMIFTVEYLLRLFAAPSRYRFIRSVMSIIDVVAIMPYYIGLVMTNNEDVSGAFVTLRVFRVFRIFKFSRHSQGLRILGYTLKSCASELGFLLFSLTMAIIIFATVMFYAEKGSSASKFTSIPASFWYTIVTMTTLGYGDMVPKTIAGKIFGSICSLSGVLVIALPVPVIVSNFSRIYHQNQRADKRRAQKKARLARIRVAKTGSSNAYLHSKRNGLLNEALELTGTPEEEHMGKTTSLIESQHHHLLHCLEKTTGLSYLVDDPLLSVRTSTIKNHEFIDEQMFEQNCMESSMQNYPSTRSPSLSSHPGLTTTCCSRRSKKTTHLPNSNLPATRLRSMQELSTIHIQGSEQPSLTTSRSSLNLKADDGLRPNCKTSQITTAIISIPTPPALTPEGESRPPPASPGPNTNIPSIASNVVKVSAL
The experiment in a line: Inhibition of transient outward potassium current (Ito) current in Chinese Hamster Ovary (CHO) K1 cells expressing human Kv4.3 measured using IonWorks Quattro automated patch clamp platform. The class given is functional, cell-based, Cricetulus griseus.

Series [4] addresses T4, Voltage-gated inwardly rectifying potassium channel KCNH2 (Homo sapiens, UniProt Q12809). As to the kind of experiment: Inhibition of rapid delayed inward rectifying potassium current (IKr) in Chinese hamster ovary (CHO) K1 cells stably expressing hERG measured using IonWorks Quattro automated patch clamp platform. Type of series: functional, cell-based, Cricetulus griseus. In general terms: Block of hERG is tested as a sign of cardiac risk.

For series [5], the target named is T2, Voltage-dependent L-type calcium channel subunit alpha-1C. The experiment in a line: Inhibition of long-lasting type calcium current (ICaL) in HEK293 cells (alpha1C/beta2a/alpha2delta1) cells measured using IonWorks Barracuda automated patch clamp platform. The class given is functional, cell-based.
Series [6] concerns the target T1, Voltage-gated potassium channel, IKs; KCNQ1(Kv7.1)/KCNE1(MinK). The experiment in a line: (§1) Inhibition of slow delayed inward rectifying potassium current (Iks) in Chinese Hamster Ovary (CHO) cells expressing hKvLQT1/hminK measured using IonWorks Quattro automated patch clamp platform. The class given is functional, cell-based, Cricetulus griseus.
For series [7], the target named is T4, Voltage-gated inwardly rectifying potassium channel KCNH2. The experiment in a line: Inhibition of rapid delayed inward rectifying potassium current (IKr) in Chinese hamster ovary (CHO) cells stable expressing hERG measured using IonWorks Barracuda automated patch clamp platform. The class given is functional, cell-based, Cricetulus griseus.
The target is the same in series [8].
Series [9] has the same target. As to the kind of experiment: Inhibition of rapid delayed inward rectifying potassium current (IKr) measured using manual patch clamp assay. Type of series: functional.
Series [10] deals with Sodium channel protein type 5 subunit alpha (Homo sapiens, UniProt Q14524). The experiment in a line: Inhibition of fast sodium current (INa) in HEK293 cells transfected with human Nav1.5 measured using IonWorks Quattro automated patch clamp platform. The class given is functional, cell-based.
Series [11] addresses Voltage-gated potassium channel, IKs; KCNQ1(Kv7.1)/KCNE1(MinK) (Homo sapiens, UniProt P15382+P51787). The series is described as §1. The class given is functional, cell-based, Cricetulus griseus.

SMILES strings stand for the structures.

T1 sequence (P51787 whole entry): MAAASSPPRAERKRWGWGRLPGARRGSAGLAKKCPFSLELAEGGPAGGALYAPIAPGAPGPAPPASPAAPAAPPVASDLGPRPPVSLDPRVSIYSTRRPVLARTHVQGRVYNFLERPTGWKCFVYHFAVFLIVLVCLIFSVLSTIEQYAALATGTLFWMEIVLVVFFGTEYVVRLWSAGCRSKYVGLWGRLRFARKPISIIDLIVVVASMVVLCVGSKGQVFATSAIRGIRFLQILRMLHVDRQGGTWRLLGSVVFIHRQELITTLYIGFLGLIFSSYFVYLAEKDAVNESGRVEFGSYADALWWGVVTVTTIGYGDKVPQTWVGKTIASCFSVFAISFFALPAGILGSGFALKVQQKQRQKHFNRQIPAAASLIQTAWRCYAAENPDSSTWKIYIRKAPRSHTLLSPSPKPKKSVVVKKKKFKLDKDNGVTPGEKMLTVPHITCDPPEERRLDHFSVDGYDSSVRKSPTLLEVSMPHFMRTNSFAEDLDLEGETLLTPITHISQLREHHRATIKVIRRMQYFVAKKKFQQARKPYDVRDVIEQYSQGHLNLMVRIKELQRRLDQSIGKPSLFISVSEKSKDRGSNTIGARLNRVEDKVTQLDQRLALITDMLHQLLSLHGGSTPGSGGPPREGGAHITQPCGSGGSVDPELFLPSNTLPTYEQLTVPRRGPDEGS
T4 sequence (Q12809 whole entry): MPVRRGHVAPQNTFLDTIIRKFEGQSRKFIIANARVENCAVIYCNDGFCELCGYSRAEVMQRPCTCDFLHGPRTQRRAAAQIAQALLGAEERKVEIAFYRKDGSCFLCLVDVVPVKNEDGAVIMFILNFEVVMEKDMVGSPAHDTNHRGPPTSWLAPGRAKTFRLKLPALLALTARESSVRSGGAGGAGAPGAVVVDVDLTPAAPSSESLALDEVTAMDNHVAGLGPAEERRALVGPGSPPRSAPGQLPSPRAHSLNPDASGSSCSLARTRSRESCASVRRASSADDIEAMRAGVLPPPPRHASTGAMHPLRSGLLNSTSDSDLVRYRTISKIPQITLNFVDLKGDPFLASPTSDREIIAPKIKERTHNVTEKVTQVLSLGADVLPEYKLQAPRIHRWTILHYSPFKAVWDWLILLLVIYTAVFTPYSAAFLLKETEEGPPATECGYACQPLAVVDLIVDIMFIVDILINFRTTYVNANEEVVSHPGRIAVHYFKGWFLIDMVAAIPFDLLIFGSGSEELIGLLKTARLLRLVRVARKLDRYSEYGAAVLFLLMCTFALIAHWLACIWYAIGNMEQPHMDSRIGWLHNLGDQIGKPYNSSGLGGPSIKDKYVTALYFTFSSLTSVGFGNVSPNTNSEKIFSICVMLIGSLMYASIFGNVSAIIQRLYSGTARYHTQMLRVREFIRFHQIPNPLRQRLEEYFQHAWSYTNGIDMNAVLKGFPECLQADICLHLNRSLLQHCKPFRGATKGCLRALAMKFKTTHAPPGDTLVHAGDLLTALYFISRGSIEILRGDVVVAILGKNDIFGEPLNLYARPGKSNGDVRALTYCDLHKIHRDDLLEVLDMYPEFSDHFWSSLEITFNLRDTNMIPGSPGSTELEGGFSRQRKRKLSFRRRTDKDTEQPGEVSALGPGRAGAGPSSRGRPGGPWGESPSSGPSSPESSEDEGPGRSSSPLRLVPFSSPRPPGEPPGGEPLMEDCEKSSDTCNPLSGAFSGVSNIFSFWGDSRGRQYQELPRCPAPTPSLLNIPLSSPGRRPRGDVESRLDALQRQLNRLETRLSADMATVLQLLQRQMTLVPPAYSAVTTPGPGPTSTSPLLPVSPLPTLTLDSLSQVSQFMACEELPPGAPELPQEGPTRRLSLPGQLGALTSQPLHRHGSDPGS
T2 sequence (Q13936 whole entry): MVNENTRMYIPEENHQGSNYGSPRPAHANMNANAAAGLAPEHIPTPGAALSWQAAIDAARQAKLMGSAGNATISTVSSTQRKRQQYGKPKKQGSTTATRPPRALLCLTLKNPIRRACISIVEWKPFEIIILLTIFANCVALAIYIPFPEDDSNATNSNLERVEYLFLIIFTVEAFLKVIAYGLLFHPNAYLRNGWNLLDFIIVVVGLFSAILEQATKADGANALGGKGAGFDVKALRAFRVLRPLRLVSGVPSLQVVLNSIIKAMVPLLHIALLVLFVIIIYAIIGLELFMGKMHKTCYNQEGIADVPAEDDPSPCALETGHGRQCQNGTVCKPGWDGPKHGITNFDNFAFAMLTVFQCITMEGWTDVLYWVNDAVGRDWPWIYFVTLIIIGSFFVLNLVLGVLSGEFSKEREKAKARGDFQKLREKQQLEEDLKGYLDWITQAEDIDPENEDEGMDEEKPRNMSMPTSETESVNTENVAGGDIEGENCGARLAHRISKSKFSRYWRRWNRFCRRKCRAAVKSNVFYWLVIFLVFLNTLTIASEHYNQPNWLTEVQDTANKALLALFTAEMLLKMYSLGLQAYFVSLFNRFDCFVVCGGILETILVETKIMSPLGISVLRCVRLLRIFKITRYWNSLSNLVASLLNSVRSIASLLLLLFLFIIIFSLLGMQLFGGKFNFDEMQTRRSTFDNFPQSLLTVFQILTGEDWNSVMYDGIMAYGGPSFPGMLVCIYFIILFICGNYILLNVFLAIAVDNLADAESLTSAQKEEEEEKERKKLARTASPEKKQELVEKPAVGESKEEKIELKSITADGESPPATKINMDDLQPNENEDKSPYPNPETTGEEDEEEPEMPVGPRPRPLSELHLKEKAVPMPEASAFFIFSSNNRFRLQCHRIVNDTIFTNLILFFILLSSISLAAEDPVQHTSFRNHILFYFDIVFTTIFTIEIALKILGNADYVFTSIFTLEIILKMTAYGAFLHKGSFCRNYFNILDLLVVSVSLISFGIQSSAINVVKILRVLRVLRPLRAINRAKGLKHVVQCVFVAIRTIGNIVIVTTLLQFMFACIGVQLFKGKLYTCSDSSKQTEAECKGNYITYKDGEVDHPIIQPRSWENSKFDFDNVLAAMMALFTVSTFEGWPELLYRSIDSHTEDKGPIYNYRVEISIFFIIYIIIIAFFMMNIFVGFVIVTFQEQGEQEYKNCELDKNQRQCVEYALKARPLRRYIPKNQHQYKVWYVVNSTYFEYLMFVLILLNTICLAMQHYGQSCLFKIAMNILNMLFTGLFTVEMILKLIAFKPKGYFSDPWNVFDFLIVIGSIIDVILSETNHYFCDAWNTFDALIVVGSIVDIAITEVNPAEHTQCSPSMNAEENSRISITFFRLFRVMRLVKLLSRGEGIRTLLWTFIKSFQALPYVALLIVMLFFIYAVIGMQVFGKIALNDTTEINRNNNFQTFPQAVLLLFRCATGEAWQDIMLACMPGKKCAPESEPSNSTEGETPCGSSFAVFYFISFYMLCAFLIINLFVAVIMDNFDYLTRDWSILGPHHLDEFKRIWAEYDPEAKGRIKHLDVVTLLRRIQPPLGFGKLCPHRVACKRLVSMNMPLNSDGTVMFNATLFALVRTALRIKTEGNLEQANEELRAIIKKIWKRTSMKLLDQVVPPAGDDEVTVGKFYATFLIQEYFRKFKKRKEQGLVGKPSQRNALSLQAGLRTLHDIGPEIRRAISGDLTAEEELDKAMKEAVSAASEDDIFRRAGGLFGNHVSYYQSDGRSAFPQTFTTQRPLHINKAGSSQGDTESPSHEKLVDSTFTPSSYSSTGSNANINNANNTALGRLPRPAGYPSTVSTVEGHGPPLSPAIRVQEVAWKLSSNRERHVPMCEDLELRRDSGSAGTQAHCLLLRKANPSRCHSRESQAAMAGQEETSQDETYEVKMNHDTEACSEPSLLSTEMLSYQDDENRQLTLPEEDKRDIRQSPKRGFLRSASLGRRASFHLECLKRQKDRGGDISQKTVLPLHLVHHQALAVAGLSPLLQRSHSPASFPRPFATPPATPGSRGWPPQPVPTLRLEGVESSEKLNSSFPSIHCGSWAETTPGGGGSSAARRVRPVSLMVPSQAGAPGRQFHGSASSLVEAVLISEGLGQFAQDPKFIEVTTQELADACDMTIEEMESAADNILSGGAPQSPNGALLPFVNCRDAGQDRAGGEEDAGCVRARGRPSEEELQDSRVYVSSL
Sequence of Voltage-gated potassium channel, IKs; KCNQ1(Kv7.1)/KCNE1(MinK) (Homo sapiens, UniProt P15382+P51787) (P51787 whole entry): as the sequence (P51787 whole entry) above

Broadly, the pIC50 is the negative decadic logarithm of the IC50, by convention in mol/L. Regarding `CCCc1nc(C)c2c(=O)[nH]c(-c3cc(S(=O)(=O)N4CCN(CC)CC4)ccc3OCC)nn12`, the pIC50 entry in series [1] is “Inactive”.
On to `Cc1cn([C@@H]2C[C@@H](O)[C@H](CO)O2)c(=O)[nH]c1=O` [TELBIVUDINE], for which the pIC50 entry in [2] is on record as “Inactive”; in series [3], “Inactive”; in series [4], 2.3.
Regarding `Nc1nnc(-c2cccc(Cl)c2Cl)c(N)n1` [LAMOTRIGINE], the negative logarithm of the IC50 (pIC50) entry in [1] and in series [3] was “Inactive” each time.
Turning to `CO[C@H]1C[C@@H]2CC[C@@H](C)[C@@](O)(O2)C(=O)C(=O)N2CCCC[C@H]2C(=O)O[C@H]([C@H](C)C[C@@H]2CC[C@@H](OCCO)[C@H](OC)C2)CC(=O)[C@H](C)/C=C(\C)[C@@H](O)[C@@H](OC)C(=O)[C@H](C)C[C@H](C)/C=C/C=C/C=C/1C` [EVEROLIMUS], the pIC50 entry in series [2], in series [5] and in series [1] was “Inactive” throughout.
For the molecule `N[C@@H](CC(=O)N1CCn2c(nnc2C(F)(F)F)C1)Cc1cc(F)c(F)cc1F` [SITAGLIPTIN], the pIC50 entry in [5] and in [1] was “Inactive” in each case.
For `CN(C)CC(c1ccc(O)cc1)C1(O)CCCCC1` (stereo unspecified) [DESVENLAFAXINE], the negative logarithm of the IC50 (pIC50) result in series [2] is on record as “Inactive”; in series [5], “Inactive”; in [6], “Inactive”; in series [1], “Inactive”; in [4], 1.7; in [7], “Inactive”.
By IC50 is commonly meant the concentration needed to halve the response being measured. Higher therefore signals weaker potency. With `C[C@H](Cc1cc2c(c(C(N)=O)c1)N(CCCO)CC2)NCCOc1ccccc1OCC(F)(F)F` [SILODOSIN], the IC50 in [8] is 7.94 µM.
Turning to `COC(c1ccccc1)(c1ccccc1)[C@H](Oc1nc(C)cc(C)n1)C(=O)O` [AMBRISENTAN], the negative-log IC50 (pIC50) entry is given as “Inactive” in [5], 2.1 in series [4] and “Inactive” in series [7].
Molecule `O=C1c2cccc3c2[C@H](CCC3)CN1[C@@H]1CN2CCC1CC2` [PALONOSETRON] showed an IC50 in series [9] of 2 µM. The negative-log IC50 (pIC50) entry in series [3] is “Inactive”.
In the case of `CS(=O)(=O)CCNCc1ccc(-c2ccc3ncnc(Nc4ccc(OCc5cccc(F)c5)c(Cl)c4)c3c2)o1` [LAPATINIB], the pIC50 entry in series [10], in [1] and in series [3] was “Inactive” throughout.
Regarding `O=C(O)c1ccc(-n2nc(-c3ccccc3O)nc2-c2ccccc2O)cc1` [DEFERASIROX], the pIC50 entry in series [5], in [6], in series [1], in series [4] and in series [7] was “Inactive” each time.
For `C[C@@H](O)[C@H]1C(=O)N2C(C(=O)O)=C(S[C@@H]3CN[C@H](CNS(N)(=O)=O)C3)[C@H](C)[C@H]12` [DORIPENEM], in series [3], the pIC50 entry is “Inactive”.
Take `COc1cc2nc(N(C)CCCNC(=O)C3CCCO3)nc(N)c2cc1OC` (stereo unspecified) [ALFUZOSIN]: the pIC50 entry in series [5] and in series [1] was “Inactive” each time.
`C[C@H]1CN(C[C@H](Cc2ccccc2)C(=O)NCC(=O)O)CC[C@@]1(C)c1cccc(O)c1` [ALVIMOPAN]: the negative-log IC50 (pIC50) result in series [3] is listed as “Inactive”.
Regarding `Cc1nc(Nc2ncc(C(=O)Nc3c(C)cccc3Cl)s2)cc(N2CCN(CCO)CC2)n1.O` [DASATINIB], in series [1], the pIC50 result is listed as “Inactive”.
In the case of `OC(CNCC(O)C1CCc2cc(F)ccc2O1)C1CCc2cc(F)ccc2O1` (stereo unspecified) [NEBIVOLOL], the IC50 in [9] was 0.316 µM. The pIC50 result in series [2] is reported as “Inactive”.
For the molecule `Cc1cn(-c2cc(NC(=O)c3ccc(C)c(Nc4nccc(-c5cccnc5)n4)c3)cc(C(F)(F)F)c2)cn1` [NILOTINIB], in [1], the pIC50 entry is “Inactive”.
The molecule `Cc1ccc(O)c([C@H](CCN(C(C)C)C(C)C)c2ccccc2)c1` [TOLTERODINE] gave an IC50 in series [11] of 79.4 µM.
In the case of `Cc1c(O)cccc1C(=O)N[C@@H](CSc1ccccc1)[C@H](O)CN1C[C@H]2CCCC[C@H]2C[C@H]1C(=O)NC(C)(C)C`, the negative logarithm of the IC50 (pIC50) entry in series [2], in [5] and in series [1] was “Inactive” in each case.
With `Cc1cc(C#N)cc(C)c1Oc1nc(Nc2ccc(C#N)cc2)nc(N)c1Br` [ETRAVIRINE], the pIC50 result in series [2], in series [5] and in [1] was “Inactive” each time.
Regarding `CC1=NN(c2ccc(C)c(C)c2)C(=O)/C1=N\Nc1cccc(-c2cccc(C(=O)O)c2)c1O` [ELTROMBOPAG], the pIC50 result in series [2], in series [5], in series [6], in series [1] and in series [4] was “Inactive” throughout.

The values above are taken from ChEMBL document CHEMBL3430320, “Prediction of Thorough QT study results using action potential simulations based on ion channel screens” (J Pharmacol Toxicol Methods, 2014).
